Experimental data published in patent publication US4195023A, “2-(2-Furoyl)1,2-benzisothiazole-3-one, 2-(2-furoyl) saccharin, and 2-(2-thenoyl) saccharin” (Merck & Co., Inc., priority 1975, dated 1980).

Key:
papain-induced emphysema = assay: Papain-Induced Emphysema in the Hamster; format: in vivo, Male Syrian hamsters; conditions: for I.S.A.3 (internal surface area), Mean ± S.E. / Lm (mean linear intercept), Mean ± S.E.: *p<0.05 versus saline i.tr. + papain aerosol group
Description: In view of the test results, infra, the compounds of formula I, supra, are inhibitors of elastase and may be used to treat emphysema and other disorders which may be treated with elastase inhibitors, such as rheumatoid arthritis. The test procedure described below for papain-induced emphysema in the hamster is representative of recognized procedures used to experimentally papain-induce emphysema in the hamster such as that of Goldring et al. "Sequential Anatomic Changes in Lungs Exposed to Papain and other Proteolytic Enzymes" pages 389-410 in Pulmonary Emphysema and Proteolysis, edited by C. Mittman, Academic Press, Inc., New York and London, 1972.
Male Syrian hamsters in the weight range of 70-90 g were used. Food and water was allowed ad libitum except in the exposure chamber. The animals were anesthetized with pentobarbital 60 mg/kg intraperitoneally (i.p.) and saline (control) or 2-(2-furoyl)-saccharin suspended in distilled water in doses of 0.3, 1 and 3 mg was given intratracheally (i.tr.) through a slightly bent capillary tube (Kimax-51 No. 34500). […] Approximately 40 minutes later the animals were exposed to an aerosol of distilled water or 3% papain (Matheson, Coleman and Bell) for 3 hours. The aerosol was generated by two nebulizers (De Vilbiss 40) attached to the sides of a 28 liter chamber and operated at a pressure of 10 lbs. p.s.i. During this period 80-100 ml of solution was used.
Seven days after the exposure the animals were sacrificed with an overdose of pentobarbital, exanguinated by cutting the renal arteries and the lungs were excised, weighed and placed in a cylindrical 0.45 liter plethysmograph with the trachea tied to a conducting tube. The latter was connected to a respiratory pump (E & M Inst. Co., Houston, Tex.) modified to provide static inflation and deflation of the lungs. Transpulmonary pressure was recorded on the abcissa of a Honeywell 530 x-y recorder through a Grass volumetric pressure transducer (PT 5A). Changes in lung volume were recorded on the ordinate of a spirometer (10 ml capacity) connected to a Harvard linear motion transducer.
The specific static compliance (SSC) of the lungs was determined as follows: the lungs were inflated to a pressure of 20 cm H2 O and then deflated at 30 second intervals by steps of 5 cm H2 O pressure. The procedure was repeated and the second pressure volume defation curve was used for analysis. SSC was then calculated according to the formula ΔV/ΔP×W, where ΔV represents change in lung volume (ml) following change in pressure (ΔP) from 5 to 0 cm H2 O, and W is the lung wet weight (g).
Subsequently, the lungs were degassed and fixed intratracheally with formalin at a constant pressure of 15 cm H2 O for at least 48 hours and then dehydrated at the same pressure. All lungs were cleared in toluene, embedded under vacuum in parafin and each pair was blocked together. Two laterosagittal sections (6μ) of each lung were made and stained with hematoxylin and eosin and the extent of emphysematous lesions was quantitatively estimated by measuring the average intra-alveolar distance (mean linear intercept of Lm). A total of 20 random histologic fields were evaluated both vertically and horizontally and subsequently corrected for distortion and shrinkage. The internal surface area of the lungs measured at post-fixation lung volume (V) and corrected to an arbitrary total lung volume of 3 ml (ISA3) was calculated according to the formula 4V/Lm. In all studies statistical evaluation consisted of analysis of variance and significance was taken at P≤0.05.

[1] = test system: elastase-induced emphysema (Porcine pancreatic elastase); assay: Elastase-Induced Emphysema in the Hamster; format: in vivo, Male Syrian hamsters; conditions: for Lm, Mean ± S.E.: *P<0.05 versus elastase 0.1 mg i.tr. group
papain = conditions: cited from earlier work
[2] = test system: trypsin, chymotrypsin, plasmin, kallikrein, elastase, thrombin and a protease from Aspergillus oryzae; conditions: cited from earlier work
Papain induced emphysema = conditions: hamster; cited from earlier work
[3] = Group C: 0.3 mg i.tr. + papain aerosol
[4] = Group D: 1 gm i.tr. (so in the source) + papain aerosol
[5] = Group E: 3 mg i.tr. + papain aerosol
[6] = Elastase 0.1 mg + 0.03 mg i.tr.

Molecule: O=C(c1ccco1)N1C(=O)c2ccccc2S1(=O)=O [2-(2-Furoyl)-saccharin, 2-(2-Furoyl)saccharin]
- % Inhibition (S.S.C.) (papain-induced emphysema; 0.3 mg i.tr. + papain aerosol): 34%
- S.S.C. (specific static compliance) ΔV/ΔP × W, Mean ± S.E. (papain-induced emphysema; 0.3 mg i.tr. + papain aerosol): 0.529 ± 0.041
- % Inhibition (S.S.C.) (papain-induced emphysema; 3 mg i.tr. + papain aerosol): 74%
- S.S.C. (specific static compliance) ΔV/ΔP × W, Mean ± S.E. (papain-induced emphysema; 3 mg i.tr. + papain aerosol, *P<0.05 versus saline i.tr. + papain aerosol group): 0.360 ± 0.017
- Inhibition, dose relation and significance (papain-induced emphysema; 0.3, 1 and 3 mg i.tr., significance at P≤0.05): dose related but significant only for doses of 1 and 3 mg
- % Inhibition (S.S.C.) (papain-induced emphysema; 1 gm i.tr. (so in the source) + papain aerosol): 48%
- S.S.C. (specific static compliance) ΔV/ΔP × W, Mean ± S.E. (papain-induced emphysema; 1 gm i.tr. (so in the source) + papain aerosol, *P<0.05 versus saline i.tr. + papain aerosol group): 0.471 ± 0.039
- % inhibition (I.S.A.3) (papain-induced emphysema; [3]): 58%
- % inhibition (Lm) (papain-induced emphysema; [3]): 69%
- I.S.A.3 (internal surface area), Mean ± S.E. (papain-induced emphysema; [3]): 400 + 38 cm^2
- Lm (mean linear intercept), Mean ± S.E. (papain-induced emphysema; [3]): 88.44 ± 2.54 μ
- % inhibition (I.S.A.3) (papain-induced emphysema; [4]): 42%
- % inhibition (Lm) (papain-induced emphysema; [4]): 59%
- I.S.A.3 (internal surface area), Mean ± S.E. (papain-induced emphysema; [4]): 1344 ± 34 cm^2
- Lm (mean linear intercept), Mean ± S.E. (papain-induced emphysema; [4]): 90.87 ± 2.40 μ
- % inhibition (I.S.A.3) (papain-induced emphysema; [5]): 65%
- % inhibition (Lm) (papain-induced emphysema; [5]): 84%
- I.S.A.3 (internal surface area), Mean ± S.E. (papain-induced emphysema; [5]): 1445 ± 54 cm^2
- Lm (mean linear intercept), Mean ± S.E. (papain-induced emphysema; [5]): 84.39 ± 2.68 μ
- development of the emphysematous lesions (papain-induced emphysema; i.tr., evaluated by both physiologic and histologic methods): prevented the development of the emphysematous lestions
- development of pulmonary emphysematous lesions ([1]; 1 mg added to elastase prior to i.tr. administration): completely prevented the development of pulmonary emphysematous lesions
- protective effect (histological changes) ([1]; 0.03 to 0.3 mg added to elastase prior to i.tr. administration): partial but statistically significant protective effect
- % inhibition of ΔLm [1, 6]: 48%
- ΔLm [1, 6]: +17 μ
- Lm, Mean ± S.E. [1, 6]: 96.61 ± 3.22 μ
- % inhibition of ΔLm ([1]; Elastase 0.1 mg + 0.1 mg i.tr.): 54%
- ΔLm ([1]; Elastase 0.1 mg + 0.1 mg i.tr.): +15 μ
- Lm, Mean ± S.E. ([1]; Elastase 0.1 mg + 0.1 mg i.tr.): 94.34 ± 4.31 μ
- % inhibition of ΔLm ([1]; Elastase 0.1 mg + 0.3 mg i.tr.): 51%
- ΔLm ([1]; Elastase 0.1 mg + 0.3 mg i.tr.): +16 μ
- Lm, Mean ± S.E. ([1]; Elastase 0.1 mg + 0.3 mg i.tr.): 96.27 ± 2.36 μ
- % inhibition of ΔLm ([1]; Elastase 0.1 mg + 1.0 mg i.tr.): 100%
- ΔLm ([1]; Elastase 0.1 mg + 1.0 mg i.tr.): -2 μ
- Lm, Mean ± S.E. ([1]; Elastase 0.1 mg + 1.0 mg i.tr.): 77.68 ± 2.54 μ

Molecule: human α1-antitrypsin (HAAT): a glycoprotein in human serum
- inhibition of papain (papain): not inhibited
- inhibitory spectrum [2]: wide inhibitory spectrum covering trypsin, chymotrypsin, plasmin, kallikrein, elastase, thrombin and a protease from Aspergillus oryzae
- Papain induced emphysema inhibited (Papain induced emphysema): inhibited
